Data taken from a melting point compilation (Tetko et al.; mined from patent text by program, amines drawn as free bases though some values may be those of a salt).

melting point [°C]	SMILES
71 to 72	CC1=N[C@H](c2ccccc2)COC1=O
207 to 210	CC(C)COc1ccc(C(=O)N/C(=C\c2ccc(C(F)(F)F)cc2)C(=O)NCCO)cc1
197 to 200	COc1ccc(C2C(C#N)=C(N)OC3=C2C(=O)CC(C)(C)C3)cc1 (stereo not drawn)
131 to 134	CS(=O)(=O)NCCC(c1cc(F)ccc1F)S(=O)(=O)c1ccc(Cl)cc1 (stereo not drawn)
114 to 115	CC(=O)N(C(C)=O)c1ccccc1Cn1[nH]c2ccccc2c1=O
153 to 154	O=C(O)C(Cc1ccccc1)CS(=O)C1CCCCC1 (stereo not drawn)
236 to 240	O=c1[nH]c(C(F)(F)F)c(Br)c(=O)[nH]1
178 to 181	N#CC1=C(N)CCN(C(=O)c2ccccc2)C1
133 to 135	OCCN(c1ccncc1F)n1ccc2ccccc21
82	CCOC(=O)C1=C(C)NNC(CC)=C1c1ccco1
112 to 115	Cc1c(F)c(=O)n(-c2cc(C(=O)OC(C)C)c(Cl)cc2F)c(=O)n1C
155 to 157	O=C(c1cc(O)c(O)c([N+](=O)[O-])c1)c1cccs1
308 to 310	Nc1cccc2c1C(=O)N([C@@H]1CCC(=O)NC1=O)C2=O
112 to 113	CC(C)(C)CC(C)(C)c1ccc(OCCOCCO)c(O)c1
136	CCOC(=O)C(C(=O)CCCCC(C)C)C1c2ccccc2C(=O)N1c1ccc2ccc(Cl)nc2n1 (stereo not drawn)
71 to 73	CC(O)C#Cc1cccc(NC(=O)Nc2ncc(C(C)C)s2)c1 (stereo not drawn)
198 to 200	Cc1nn(C)c(C)c1-c1cccc(-n2c(N)nc3ccccc32)c1
189 to 190	C[C@H]1N(C(=O)c2ccc(C(F)(F)F)cc2)CC(=O)O[C@@]1(Cn1cncn1)c1ccc(C(F)(F)F)cc1 (relative stereo)

melting point [°C]	SMILES
94 to 96	C=C(C)[C@H]1CC[C@@](C)(O)[C@H](NC23CC4CC(CC(C4)C2)C3)C1
168 to 169	COC(=O)c1ccccc1NC(=O)CN1CCN(C(=O)c2ccc(OC)cc2)CC1
> 300	Cc1cc2[nH]c(=O)c(C(=O)O)nc2cc1-n1ccc(CNC(=O)Nc2ccc(C(=O)O)cc2)c1
210 to 212	NC(=O)N1CC(Sc2ccc(Cl)cc2)C1
124	Cc1ccc(C(=O)OCc2c3ccccc3cc3ccccc23)cc1
129 to 132	COC(=O)C1CC(C#N)(c2ccc(OC)c3c2OCCO3)CCC1=O (stereo not drawn)
167 to 168	CCOC=Cc1nc2c(=O)n(Cc3ccccc3)cnc2n1Cc1ccccc1
102 to 103	CCCCSc1cc(C(=O)O)cc(N=Nc2cc(C(=O)O)cc(SCCCC)c2C(=O)c2ccccc2)c1C(=O)c1ccccc1
175 to 177	Cc1nn(-c2cc(Oc3ccc(C#N)cc3)c(Cl)cc2F)c(=O)n1C(F)F
100	Cc1cccc(C)c1C(CNC(=O)OC(C)(C)C)COCc1c(F)cccc1F (stereo not drawn)
234 to 236	O=C1Cc2cc3c(cc2C(c2ccco2)=NN1)OCO3
188 to 190	CNC(=O)n1c(NC(=O)c2ccc(NC(=N)N)cc2)nc2ccccc21
135 to 137	Cc1c(-c2ccc(OCc3ccccc3)c(F)c2)[nH]c2ccc(OCc3ccccc3)cc12
235 to 236	NC(=O)c1c(NC(=O)C2CC2)sc2c(O)c(Br)ccc12
94 to 95	C=C=COc1ccccc1S(N)(=O)=O
195 to 198	CCOC(=O)c1cn(Cc2ccc(-c3ccccc3-c3nnnn3C(c3ccccc3)(c3ccccc3)c3ccccc3)cc2)c2sc(CC)cc2c1=O
195	CCOP(=O)(OCC)c1nc(NC2CC(C)(C)NC(C)(C)C2)nc(NC2CC(C)(C)NC(C)(C)C2)n1

SMILES	melting point [°C]
CCC(=O)OCC12CCC(=O)C=C1CCC1C2CCC2(C)C(OC(=O)CC)CCC12 (stereo not drawn)	82 to 84
CC(c1ccc(Cl)cc1Cl)n1nc(C(=O)O)cc1-c1ccc(Cl)cc1 (stereo not drawn)	80
CN1Cc2c(C#N)ncn2-c2cccc(F)c2C1=O	> 250
